Assay results from the supplement of paper PMC8960247.
Structures can show the parent of a compound that is named as a salt. ± gives the standard error.

Experiments:
621-102 (TSC2-deficient) = assay: relative viability vs DMSO; higher = less cytotoxic; details: serum: 10% FBS, 72 h
621-103 (TSC2-rescued) = assay: as above; details: serum: 10% FBS, 72 h
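Further: immortalized renal angiomyolipoma cells stably carrying empty vector or TSC2, dosed in 384-well plates in DMEM, viability normalized to vehicle-treated wells within each plate.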

SMILES	relative viability (621-102 (TSC2-deficient); 0.0001 µM) [%]	relative viability (621-102 (TSC2-deficient); 0.001 µM) [%]	relative viability (621-102 (TSC2-deficient); 0.01 µM) [%]	relative viability (621-102 (TSC2-deficient); 0.1 µM) [%]	relative viability (621-102 (TSC2-deficient); 1 µM) [%]	relative viability (621-102 (TSC2-deficient); 10 µM) [%]	relative viability (621-103 (TSC2-rescued); 0.0001 µM) [%]	relative viability (621-103 (TSC2-rescued); 0.001 µM) [%]	relative viability (621-103 (TSC2-rescued); 0.01 µM) [%]	relative viability (621-103 (TSC2-rescued); 0.1 µM) [%]	relative viability (621-103 (TSC2-rescued); 1 µM) [%]	relative viability (621-103 (TSC2-rescued); 10 µM) [%]
Cc1ncc([N+](=O)[O-])n1CC(C)O (stereo not drawn) [Secnidazole]	108.6 ± 0.66	118.1 ± 0.34	108 ± 3.4	101 ± 3.9	102.2 ± 0.53	111 ± 3	101 ± 2.1	105 ± 3.6	105 ± 4.5	105.2 ± 0.64	100 ± 4.3	93.6 ± 4.8
C#CCN(C)[C@H](C)Cc1ccccc1 [Selegiline HCl]	81.4 ± 7.3	80.4 ± 9.2	91.8 ± 7.5	102 ± 1.1	95.7 ± 3	88.1 ± 1.8	95.9 ± 3.1	92.55 ± 0.61	100 ± 1.2	109 ± 2.5	102 ± 3.7	79.5 ± 0.86
CC(C)[C@H](O)C(=O)N[C@@H](C)C(=O)N[C@@H]1C(=O)N(C)CCc2ccccc21 [Semagacestat]	117 ± 2.5	118 ± 4.2	121.4 ± 0.8	117 ± 2	118 ± 1.6	116 ± 2.2	102 ± 2.3	98.71 ± 0.85	101 ± 1.2	102.5 ± 0.4	102 ± 1.2	103 ± 1.7
N[C@@H](CC(=O)N1CCn2c(nnc2C(F)(F)F)C1)Cc1cc(F)c(F)cc1F [Sitagliptin phosphate]	98.7 ± 0.22	104.4 ± 0.16	103 ± 2.5	94 ± 4.4	96.2 ± 1.3	91.46 ± 0.51	97.02 ± 0.71	97.6 ± 1.3	98.68 ± 0.34	100 ± 2	98.8 ± 2.4	101 ± 0.53
CNC(=O)c1cc(Oc2ccc(NC(=O)Nc3ccc(Cl)c(C(F)(F)F)c3)cc2)ccn1 [Sorafenib Tosylate]	90.38 ± 0.54	99.7 ± 5.4	113 ± 6.4	110.1 ± 0.44	127 ± 1.7	82.2 ± 13	97.89 ± 0.32	102 ± 2	106 ± 1.2	102 ± 1.9	102 ± 1.6	44.5 ± 3.4
CC(C)NCC(O)c1ccc(NS(C)(=O)=O)cc1 (stereo not drawn) [Sotalol HCl]	79.7 ± 5.2	99.6 ± 3.7	108.1 ± 1	115 ± 6.1	114 ± 2.9	107 ± 6.9	92 ± 1.4	115 ± 2	113 ± 1.3	118 ± 5.8	118 ± 1.5	108 ± 1.7
Cc1cn([C@H]2C=C[C@@H](CO)O2)c(=O)[nH]c1=O [Stavudine]	75.4 ± 3.2	76.7 ± 0.81	81.206 ± 0.072	89.1 ± 8.5	83.4 ± 2.3	71.2 ± 1.9	105 ± 1.2	99.6 ± 5.1	110 ± 5.4	109 ± 5.7	93.2 ± 2.2	91.2 ± 1.3
Cc1cc(NS(=O)(=O)c2ccc(N)cc2)no1 [Sulfamethoxazole]	105 ± 5.2	104 ± 3.8	104.66 ± 0.095	97.02 ± 0.95	101.8 ± 0.93	97.2 ± 2	96.09 ± 0.3	102 ± 2.2	101 ± 3.9	101 ± 4.7	99.4 ± 6	101 ± 1.7
Nc1ccc(S(N)(=O)=O)cc1 [Sulfanilamide]	94.3 ± 1.1	108 ± 5.2	97.7 ± 2.6	99 ± 1.8	99.8 ± 2.5	92.9 ± 1.2	102 ± 3.3	102 ± 0.77	104 ± 1.8	106 ± 1.9	101 ± 2.4	96.1 ± 2.9
CCN(CC)CCNC(=O)c1c(C)[nH]c(/C=C2\C(=O)Nc3ccc(F)cc32)c1C [Sunitinib Malate]	98.8 ± 6.5	110 ± 7	107 ± 5.9	110 ± 3.6	125 ± 4.1	71 ± 1.9	102 ± 2.3	106 ± 1.5	105.8 ± 0.65	105 ± 1.8	103.2 ± 0.44	30.5 ± 0.91
Cn1c(=O)c(F)c(Nc2ccc(I)cc2F)c2c(=O)n(C[C@@H](O)CO)cnc21 [TAK-733]	101 ± 5.3	107 ± 2.2	101 ± 4.8	95.22 ± 0.047	67.4 ± 2.4	54.3 ± 0.28	97.8 ± 5.4	84.4 ± 2.9	83.5 ± 6	84.4 ± 7	60.7 ± 6.7	51.7 ± 4.3
Cc1cc(OCCCS(C)(=O)=O)cc(C)c1-c1cccc(COc2ccc3c(c2)OC[C@H]3CC(=O)O)c1 [TAK-875]	61.2 ± 7.8	61.5 ± 4	75.9 ± 5.2	80.9 ± 4.5	84.24 ± 0.76	84.2 ± 5.3	103 ± 3	102 ± 1.9	103.7 ± 0.45	102.5 ± 0.61	103 ± 3.5	95.16 ± 0.36
Nc1nc(N)c2nc(-c3cccc(O)c3)c(-c3cccc(O)c3)nc2n1 [TG100-115]	98.9 ± 7.9	105 ± 4.8	110.59 ± 0.023	112 ± 1.9	111 ± 5.8	95.6 ± 3.2	99.62 ± 0.33	99.8 ± 1.2	106 ± 4.6	99.3 ± 0.84	99.5 ± 1.8	100.3 ± 1
Cc1cc(C(C)Nc2ccccc2)c2nc(N3CCOCC3)cc(=O)n2c1 (stereo not drawn) [TGX-221]	94.1 ± 1.7	106 ± 7.4	114 ± 3.3	112 ± 3.6	114 ± 4	101 ± 1.8	98.3 ± 0.45	98.8 ± 0.21	97.7 ± 2	98.8 ± 1.6	99.4 ± 1.5	102 ± 1.8
Cc1[nH]c(/C=C2\C(=O)Nc3ccccc32)c(C)c1CCC(=O)O [TSU-68]	94 ± 1.4	106 ± 3.3	119 ± 3.6	110 ± 2.1	91.7 ± 3.8	95.8 ± 2.4	101 ± 1.9	103 ± 1.2	101 ± 2.4	102 ± 1.7	102 ± 1.9	95.7 ± 1.1
CN1CC(=O)N2[C@H](c3ccc4c(c3)OCO4)c3[nH]c4ccccc4c3C[C@@H]2C1=O [Tadalafil (Cialis)]	107.45 ± 0.0089	97.8 ± 3.3	107 ± 4.8	101 ± 2	94.3 ± 2.4	107.7 ± 0.44	91.2 ± 1.9	92.87 ± 0.31	102.7 ± 0.92	92.11 ± 0.35	96.51 ± 0.38	101 ± 2
CC/C(=C(\c1ccccc1)c1ccc(OCCN(C)C)cc1)c1ccccc1 [Tamoxifen Citrate]	102.7 ± 0.75	98.8 ± 1.8	111 ± 2.6	98.76 ± 0.6	100.8 ± 1	80.9 ± 5.2	101 ± 3.6	102 ± 3.1	104 ± 5.2	101 ± 2.4	107 ± 3.5	48.1 ± 2.6
CCOc1ccccc1OCCN[C@H](C)Cc1ccc(OC)c(S(N)(=O)=O)c1 [Tamsulosin HCl]	104 ± 3.8	99.7 ± 2.3	99.5 ± 2.2	102 ± 5	97 ± 3.9	98.4 ± 4	107 ± 5.6	104 ± 4.7	105 ± 2	103 ± 2.4	96.4 ± 7	98.4 ± 2.6
COc1cc2c(N3CCN(C(=O)Nc4ccc(OC(C)C)cc4)CC3)ncnc2cc1OCCCN1CCCCC1 [Tandutinib (MLN518)]	107 ± 3.1	97.9 ± 4.1	99.7 ± 0.23	96.6 ± 3	98.2 ± 3.4	80 ± 2.4	99.4 ± 1.1	99.87 ± 0.96	101 ± 2.1	101 ± 1.9	99.31 ± 0.29	83.4 ± 1.2
